Assay results published in patent EP0350163A2, “Renin inhibitory peptides” (BEECHAM GROUP PLC, priority 1988, dated 1990).
pIC50: −log10 of the molar value. Structures can show the parent of a compound that is named as a salt.

Molecular target: T1, human renin (Homo sapiens, UniProt P00797)
T1 construct: from tissue; host or cells: human plasma from the blood of healthy volunteers
T1 sequence (P00797 67-406): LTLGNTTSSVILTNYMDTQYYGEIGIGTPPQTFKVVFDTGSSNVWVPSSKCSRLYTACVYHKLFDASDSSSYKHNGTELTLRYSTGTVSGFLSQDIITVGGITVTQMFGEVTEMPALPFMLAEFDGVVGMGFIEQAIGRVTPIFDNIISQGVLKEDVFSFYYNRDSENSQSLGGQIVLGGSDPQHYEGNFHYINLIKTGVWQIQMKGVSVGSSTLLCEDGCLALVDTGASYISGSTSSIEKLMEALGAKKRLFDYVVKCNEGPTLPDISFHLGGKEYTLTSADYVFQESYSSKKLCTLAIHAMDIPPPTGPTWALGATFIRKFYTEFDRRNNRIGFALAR
Test: In vitro human renin inhibition (renin activity in human plasma, angiotensin I radioimmunoassay)
Type: biochemical
Conditions: human plasma from healthy volunteers; angiotensin I difference between 37° and 4° for 2 h; linear regression of at least three concentrations; read-out: IC₅₀
Description: Renin inhibitory activity was estimated as the percentage change in renin activity in human plasma in the presence and absence of compound. The source of plasma was blood taken from healthy volunteers. Renin activity was defined by the difference in angiotensin I levels between two halves of a sample, one incubated at 37^o and the other at 4^o for 2 h. Angiotensin I levels were measured using a ¹²⁵I- angiotensin I radioimmunoassay kit (NEN/DuPont, Stevenage). Results were calculated as the mean of at least two, duplicate determinations and IC₅₀ values were calculated by linear regression analysis of at least three concentrations of compound.

SMILES | pIC50
CC(C)CNC(=O)C[C@H](O)[C@H](CC1CCCCC1)NC(=O)[C@H](CC(C)C)NC(=O)[C@H](Cc1ccccc1)NC(=O)CC1COc2ccc(NC(N)=O)cc21 (stereo partly drawn) [E 7, 4-(S)-((5-Ureido-2,3-dihydrobenzofuran-3-yl)acetyl-(S)-phenylalanyl-(S)-leucyl)amino-5-cyclohexyl-3-(S)-hydroxypentanoic acid isobutylamide dihydrate] | 7.30
CC(C)CNC(=O)C[C@H](O)[C@H](CC1CCCCC1)NC(=O)[C@H](CC(C)C)NC(=O)[C@H](Cc1ccccc1)NC(=O)CC1COc2ccc(N)cc21 (stereo partly drawn) [E 6, 4-(S)-((5-Amino-2,3-dihydrobenzofuran-3-yl)acetyl-(S)-phenylalanyl-(S)-leucyl)amino-5-cyclohexyl-3-(S)-hydroxypentanoic acid isobutylamide trifluoroacetate hemihydrate] | 7.52
CC(C)CNC(=O)C[C@H](O)[C@H](CC1CCCCC1)NC(=O)[C@H](CC(C)C)NC(=O)[C@H](Cc1ccccc1)NC(=O)CC1COc2ccc(S(=O)(=O)CC(=O)OC(C)(C)C)cc21 (stereo partly drawn) [Example E43, 4-(S)-((5-(tert-Butoxycarbonylmethanesulphonyl)-2,3-dihydrobenzofuran-3-yl)acetyl)-(S)-phenylalanyl-(S)-leucyl)amino-5-cyclohexyl-3-(S)-hydroxypentanoic acid isobutylamide hemihydrate] | 8.10
CC(C)CNC(=O)C[C@H](O)[C@H](CC1CCCCC1)NC(=O)[C@H](Cc1cnc[nH]1)NC(=O)[C@H](Cc1ccccc1)NC(=O)CC1CS(=O)(=O)c2cc(CN)ccc21 (stereo partly drawn) [Example E60, 4-(S)-((6-Aminomethyl-2,3-dihydro-1,1-dioxobenzothiophene-3-yl)acetyl-(S)-phenylalanyl-(S)-histidyl)amino-5-cyclohexyl-3-(S)-hydroxypentanoic acid isobutylamide bis(trifluoroacetate) sesquihydrate] | 7.40
CC(C)CNC(=O)C[C@H](O)[C@H](CC1CCCCC1)NC(=O)[C@H](Cc1cnc[nH]1)NC(=O)[C@H](Cc1ccccc1)NC(=O)CC1COc2ccc(C(=O)OCc3ccccc3)cc21 (stereo partly drawn) [Example E23, 4-(S)-((5-Benzyloxycarbonyl)-2,3-dihydrobenzofuran-3-yl)acetyl-(S)-phenylalanyl-(S)-histidyl)amino-5-cyclohexyl-3-(S)-hydroxypentanoic acid isobutylamide hemihydrate] | 6.33
CC(C)CNC(=O)C[C@H](O)[C@H](CC1CCCCC1)NC(=O)[C@H](CC(C)C)NC(=O)[C@H](Cc1ccccc1)NC(=O)CC1CS(=O)(=O)c2ccccc21 (stereo partly drawn) [Example E12, 4-(S)-((2,3-Dihydro-1,1-dioxobenzothiophene-3-yl)acetyl-(S)-phenylalanyl-(S)-leucyl)amino-5-cyclohexyl-3-(S)-hydroxypentanoic acid isobutylamide] | 8.00
COc1cccc2c1OCC2CC(=O)N[C@@H](Cc1ccccc1)C(=O)N[C@@H](CC(C)C)C(=O)N[C@@H](CC1CCCCC1)[C@@H](O)CC(=O)NCC(C)C (stereo partly drawn) [E 3, 4-(S)-((7-Methoxy-2,3-dihydrobenzofuran-3-yl)acetyl-(S)-phenylalanyl-(S)-leucyl)amino-5-cyclohexyl-3-(S)-hydroxypentanoic acid isobutylamide hemihydrate] | 7.30
CC(C)CNC(=O)C[C@H](O)[C@H](CC1CCCCC1)NC(=O)[C@H](CC(C)C)NC(=O)[C@H](Cc1ccccc1)NC(=O)CC1COc2ccc(S(=O)(=O)CC(=O)O)cc21 (stereo partly drawn) [Example E56, 4-(S)-((5-(Carboxymethanesulphonyl)-2,3-dihydrobenzofuran-3-yl)acetyl-(S)-phenylalanyl-(S)-leucyl)amino-5-cyclohexyl-3-(S)-hydroxypentanoic acid isobutylamide, sodium salt] | 7.22
CC(C)CNC(=O)C[C@H](O)[C@H](CC1CCCCC1)NC(=O)[C@H](CC(C)C)NC(=O)[C@H](Cc1ccccc1)NC(=O)CC1COc2ccc([N+](=O)[O-])cc21 (stereo partly drawn) [E 5, 4-(S)-((5-Nitro-2,3-dihydrobenzofuran-3-yl)acetyl-(S)-phenylalanyl-(S)-leucyl)amino-5-cyclohexyl-3-(S)-hydroxypentanoic acid isobutylamide hemihydrate] | 7.22

More lines, in order of rising pIC50, values ahead:

pIC50 | SMILES
7.00 | CC(C)CNC(=O)C[C@H](O)[C@H](CC1CCCCC1)NC(=O)[C@H](CC(C)C)NC(=O)[C@H](Cc1ccccc1)NC(=O)CC1COc2ccc(CNCC(=O)O)cc21 (stereo partly drawn) [Example E36a, 4-(S)-((5-(Carboxymethylaminomethyl)-2,3-dihydrobenzofuran-3-yl)acetyl-(S)-phenylalanyl-(S)-leucyl)amino-5-cyclohexyl-3-(S)-hydroxvoentanoic acid isobutylamide]
7.30 | CNS(=O)(=O)c1ccc2c(c1)C(CC(=O)N[C@@H](Cc1ccccc1)C(=O)N[C@@H](CC(C)C)C(=O)N[C@@H](CC1CCCCC1)[C@@H](O)CC(=O)NCC(C)C)CO2 (stereo partly drawn) [E 9, 4 (S)-((5-(Methylaminosulphonyl)-2,3-dihydrobenzofuran-3-yl)acetyl-(S)-phenylalanyl-(S)-leucyl)amino-5-cyclohexyl-3-(S)-hydroxypentanoic acid isobutylamide]
7.40 | CC(C)CNC(=O)C[C@H](O)[C@H](CC1CCCCC1)NC(=O)[C@H](Cc1c[nH]cn1)NC(=O)[C@H](Cc1ccccc1)NC(=O)CC1COc2ccc([N+](=O)[O-])cc21 (stereo partly drawn) [Example E39, 4-(S)-((5-Nitro-2,3-dihydrobenzofuran-3-yl)acetyl-(S)-phenylalanyl-(S)-histidyl)amino-5-cyclohexyl-3-(S)-hydroxypentanoic acid isobutylamide hydrate]
7.52 | CC(C)CNC(=O)C[C@H](O)[C@H](CC1CCCCC1)NC(=O)[C@H](CC(C)C)NC(=O)[C@H](Cc1ccccc1)NC(=O)CC1COc2ccc(CN)cc21 (stereo partly drawn) [Example E20a, 4-(S)-((5-(Aminomethyl)-2,3-dihydrobenzofuran-3-yl)acetyl-(S)-phenylalanyl-(S)-leucyl)amino-5-cyclohexyl-3-(S)-hydroxypentanoic acid isobutylamide hemi(trichloromethanate)]
8.00 | CC(C)CNC(=O)C[C@H](O)[C@H](CC1CCCCC1)NC(=O)[C@H](CC(C)C)NC(=O)[C@H](Cc1ccccc1)NC(=O)CC1CS(=O)(=O)c2cc(N)ccc21 (stereo partly drawn) [Example E29, 4-(S)-((6-Amino-2,3-dihydro-1,1-dioxobenzothiophene-3-yl)acetyl-(S)-phenylalanyl-(S)-leucyl)amino-5-cyclohexyl-3-(S)-hydroxypentanoic acid isobutylamide dihydrate]
8.00 | CC(C)CNC(=O)C[C@H](O)[C@H](CC1CCCCC1)NC(=O)[C@H](CC(C)C)NC(=O)[C@H](Cc1ccccc1)NC(=O)CC1CS(=O)(=O)c2ccc(CN)cc21 (stereo partly drawn) [Example E50, 4-(S)-((5-Aminomethyl-2,3-dihydro-1,1-dioxobenzothiophene-3-yl)acetyl-(S)-phenylalanyl-(S)-leucyl)amino-5-cyclohexyl-3-(S)-hydroxypentanoic acid isobutylamide]
8.05 | CC(C)CNC(=O)C[C@H](O)[C@H](CC1CCCCC1)NC(=O)[C@H](CC(C)C)NC(=O)[C@H](Cc1ccccc1)NC(=O)CC1CS(=O)(=O)c2ccc(C#N)cc21 (stereo partly drawn) [Example E45, 4-(S)-((5-Cyano-2,3-dihydro-1,1-dioxobenzothiophene-3-yl)acetyl-(S)-phenylalanyl-(S)-leucyl)amino-5-cyclohexyl-3-(S)-hydroxypentanoic acid isobutylamide]
8.10 | CC(C)CNC(=O)C[C@H](O)[C@H](CC1CCCCC1)NC(=O)[C@H](CC(C)C)NC(=O)[C@H](Cc1ccccc1)NC(=O)CC1CS(=O)(=O)c2cc(CN)ccc21 (stereo partly drawn) [Example E31a, 4-(S)-((6-Aminomethyl-2,3-dihydro-1,1-dioxobenzothiophene-3-yl)acetyl-(S)-phenylalanyl-(S)-leucyl)amino-5-cyclohexyl-3-(S)-hydroxypentanoic acid isobutylamide dihydrate]
